This note sets out measurements from patent US12685735B2 (Foghorn Therapeutics Inc., priority 2020, dated 2026).

Like-named read-outs stand apart in the source and are kept apart here. Some results are limits rather than exact numbers.

For one experiment, the target named is BRG-1 (Homo sapiens, UniProt P51532). The experiment can be described thus: ATPase catalytic activity assay of BRG-1 (ADP-Glo). In kind it is biochemical. The conditions noted are these: ATPase catalytic activity, ADP-Glo; for IC50: read-out: BRG1 IC50 (μM)*; for Emax: read-out: BRG1 Max % Inhibition. An outline of the steps: (§1)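 Once the enzyme reaction finished, residual ATP is removed with ADP-Glo Reagent over 40 minutes at room temperature. Kinase Detection Reagent then converts product ADP into ATP during a 60-minute room-temperature incubation, and the luciferase signal is read.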
Sequence of BRG-1 (P51532 whole entry): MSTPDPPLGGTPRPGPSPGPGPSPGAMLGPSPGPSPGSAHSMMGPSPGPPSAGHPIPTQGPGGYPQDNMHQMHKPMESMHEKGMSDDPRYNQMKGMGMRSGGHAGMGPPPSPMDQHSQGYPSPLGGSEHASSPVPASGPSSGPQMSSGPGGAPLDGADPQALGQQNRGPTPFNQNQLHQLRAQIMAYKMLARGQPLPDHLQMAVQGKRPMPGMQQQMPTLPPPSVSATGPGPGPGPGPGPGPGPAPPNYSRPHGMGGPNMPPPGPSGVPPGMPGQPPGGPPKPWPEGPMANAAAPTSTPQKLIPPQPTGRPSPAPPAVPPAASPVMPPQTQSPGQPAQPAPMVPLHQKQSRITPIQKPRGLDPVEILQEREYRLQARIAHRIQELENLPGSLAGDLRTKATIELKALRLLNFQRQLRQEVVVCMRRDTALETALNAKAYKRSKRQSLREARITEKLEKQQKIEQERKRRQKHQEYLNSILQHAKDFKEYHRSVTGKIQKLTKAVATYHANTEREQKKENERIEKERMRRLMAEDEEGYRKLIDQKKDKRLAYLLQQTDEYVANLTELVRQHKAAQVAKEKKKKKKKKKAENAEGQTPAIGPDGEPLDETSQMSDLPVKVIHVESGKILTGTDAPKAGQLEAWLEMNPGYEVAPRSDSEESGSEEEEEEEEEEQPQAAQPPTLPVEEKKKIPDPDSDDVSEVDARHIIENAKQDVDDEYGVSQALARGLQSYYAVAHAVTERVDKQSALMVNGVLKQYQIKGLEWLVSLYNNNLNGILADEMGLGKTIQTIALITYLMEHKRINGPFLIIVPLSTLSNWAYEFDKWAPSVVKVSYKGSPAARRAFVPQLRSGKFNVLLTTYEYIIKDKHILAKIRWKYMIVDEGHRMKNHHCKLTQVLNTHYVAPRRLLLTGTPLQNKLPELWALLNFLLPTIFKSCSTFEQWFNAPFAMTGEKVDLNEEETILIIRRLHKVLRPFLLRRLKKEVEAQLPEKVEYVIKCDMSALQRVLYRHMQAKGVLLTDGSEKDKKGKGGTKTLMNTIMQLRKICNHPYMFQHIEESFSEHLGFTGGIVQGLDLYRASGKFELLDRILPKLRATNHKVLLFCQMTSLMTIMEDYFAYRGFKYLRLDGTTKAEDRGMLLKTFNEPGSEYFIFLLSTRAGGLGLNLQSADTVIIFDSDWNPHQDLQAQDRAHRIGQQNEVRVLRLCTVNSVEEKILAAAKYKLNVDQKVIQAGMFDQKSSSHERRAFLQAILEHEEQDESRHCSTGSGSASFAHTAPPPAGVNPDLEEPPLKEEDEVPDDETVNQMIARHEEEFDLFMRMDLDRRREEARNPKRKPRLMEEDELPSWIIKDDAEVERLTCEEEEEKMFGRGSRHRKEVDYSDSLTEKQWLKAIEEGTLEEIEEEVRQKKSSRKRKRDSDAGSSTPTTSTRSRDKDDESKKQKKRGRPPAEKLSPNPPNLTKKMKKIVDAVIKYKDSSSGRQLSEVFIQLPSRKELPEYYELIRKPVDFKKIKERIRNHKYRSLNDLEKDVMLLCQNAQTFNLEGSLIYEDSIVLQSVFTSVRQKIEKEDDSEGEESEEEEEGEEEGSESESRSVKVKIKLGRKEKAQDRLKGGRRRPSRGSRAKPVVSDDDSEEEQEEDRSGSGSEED
(In general: ADP-Glo first removes unused ATP, then detects ADP through luciferase.)

For a further experiment, the target named is BRM (Homo sapiens, UniProt P51531). The experiment can be described thus: ATPase catalytic activity assay of BRM (ADP-Glo). In kind it is biochemical. The conditions noted are these: for IC50: read-out: BRM IC50 (μM)*. An outline of the steps: as §1
Sequence of BRM (P51531 whole entry): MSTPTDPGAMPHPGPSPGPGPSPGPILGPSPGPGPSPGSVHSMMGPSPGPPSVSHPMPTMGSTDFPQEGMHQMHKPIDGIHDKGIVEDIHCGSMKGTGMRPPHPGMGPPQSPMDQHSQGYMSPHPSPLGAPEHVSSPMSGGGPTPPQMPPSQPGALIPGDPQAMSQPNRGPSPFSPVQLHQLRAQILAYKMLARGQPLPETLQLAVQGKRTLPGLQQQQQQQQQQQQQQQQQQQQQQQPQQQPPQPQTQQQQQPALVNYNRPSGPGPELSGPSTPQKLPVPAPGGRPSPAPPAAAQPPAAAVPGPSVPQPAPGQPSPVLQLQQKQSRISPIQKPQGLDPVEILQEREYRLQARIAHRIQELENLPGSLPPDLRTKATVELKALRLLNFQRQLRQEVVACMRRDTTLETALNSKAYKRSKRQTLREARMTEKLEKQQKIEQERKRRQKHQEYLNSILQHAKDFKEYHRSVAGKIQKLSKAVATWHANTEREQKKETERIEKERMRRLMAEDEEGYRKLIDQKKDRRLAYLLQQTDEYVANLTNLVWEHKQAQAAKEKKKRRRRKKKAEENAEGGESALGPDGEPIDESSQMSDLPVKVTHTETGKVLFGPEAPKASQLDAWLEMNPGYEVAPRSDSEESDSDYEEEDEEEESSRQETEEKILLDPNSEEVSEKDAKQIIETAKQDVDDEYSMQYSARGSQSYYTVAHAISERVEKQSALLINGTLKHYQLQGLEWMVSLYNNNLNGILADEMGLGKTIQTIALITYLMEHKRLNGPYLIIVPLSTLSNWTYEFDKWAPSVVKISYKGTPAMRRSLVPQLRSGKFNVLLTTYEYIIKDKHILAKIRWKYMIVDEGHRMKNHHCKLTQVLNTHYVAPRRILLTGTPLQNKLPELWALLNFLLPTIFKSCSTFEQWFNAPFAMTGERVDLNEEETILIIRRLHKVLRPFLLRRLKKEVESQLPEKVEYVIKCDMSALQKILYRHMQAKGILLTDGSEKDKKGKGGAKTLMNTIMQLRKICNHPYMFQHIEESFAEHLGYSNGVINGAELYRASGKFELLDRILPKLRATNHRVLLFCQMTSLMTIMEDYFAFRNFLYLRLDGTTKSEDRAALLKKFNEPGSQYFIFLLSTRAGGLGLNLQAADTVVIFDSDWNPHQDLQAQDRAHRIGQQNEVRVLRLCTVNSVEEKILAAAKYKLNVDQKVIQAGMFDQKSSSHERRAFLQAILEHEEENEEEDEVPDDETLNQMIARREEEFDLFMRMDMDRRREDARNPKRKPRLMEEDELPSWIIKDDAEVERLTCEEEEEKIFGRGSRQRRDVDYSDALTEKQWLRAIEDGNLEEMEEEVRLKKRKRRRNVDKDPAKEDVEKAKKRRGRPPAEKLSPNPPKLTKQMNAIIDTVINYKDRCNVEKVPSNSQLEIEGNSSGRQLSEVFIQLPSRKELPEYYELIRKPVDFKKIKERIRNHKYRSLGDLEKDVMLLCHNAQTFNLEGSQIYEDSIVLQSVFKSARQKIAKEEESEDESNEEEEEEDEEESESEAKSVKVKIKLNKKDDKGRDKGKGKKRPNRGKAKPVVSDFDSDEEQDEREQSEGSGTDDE

As usually defined, the IC50 is the concentration at which inhibition is half-maximal. As to `Cc1cc(C(=O)NCC(=O)Nc2nc(-c3cccc(-c4ccncc4)c3)cs2)cc(S(=O)(=O)C(C)C)c1` [Compound 20, 3-(isopropylsulfonyl)-5-methyl-N-(2-oxo-2-((4-(3-(pyridin-4-yl)phenyl)thiazol-2-yl)amino)ethyl)benzamide], at BRG-1, the IC50 was > 5 µM and the Emax is < 30%. Besides, on BRM, the “BRM Max % Inhibition” value is recorded as >60% and the IC50 was in the range of 0.1 to 1 µM.

Turning to `COc1cccc(-c2csc(NC(=O)CNC(=O)c3ccc4c(c3)[C@](C)(C#N)COC4)n2)n1` [Compound 397, (R)-4-cyano-N-(2-((4-(6-methoxypyridin-2-yl)thiazol-2-yl)amino)-2-oxoethyl)-4-methylisochromane-6-carboxamide], on BRG-1, the IC50 was in the range of 0.1 to 1 µM and the Emax is > 95%. On BRM, the “BRM Max % Inhibition” value was >95% and the IC50 is < 0.1 µM.

`CC(NC(=O)c1ccc2c(c1)[C@](C)(F)COC2)C(=O)Nc1nc(-c2cccc(N3CCC3)c2)cs1` (stereo in doubt) [Compound 319, (S)-N-((R)-1-((4-(3-(azetidin-1-yl)phenyl)thiazol-2-yl)amino)-1-oxopropan-2-yl)-4-fluoro-4-methylisochromane-6-carboxamide]: on BRG-1, the IC50 was 0.1 to 1 µM and the Emax was > 95%. Further, at BRM, the “BRM Max % Inhibition” value is >95% and the IC50 is < 0.1 µM.

On to `C[C@@H]1CN(c2cccc(-c3csc(NC(=O)CNC(=O)c4cccc([C@@]5(O)CCOC5)c4)n3)n2)C[C@H](C)O1` [Compound 134, N-[2-[[4-[6-[(cis)-2,6-dimethylmorpholin-4-yl]-2-pyridyl]thiazol-2-yl]amino]-2-oxo-ethyl]-3-[(3S)-3-hydroxytetrahydrofuran-3-yl]benzamide], for which, on BRG-1, the half-maximal inhibitory concentration (IC50) was in the range of 1 to 5 µM and the Emax is > 60%. For the same compound, at BRM, the “BRM Max % Inhibition” value is listed as >80% and the IC50 lay within 0.1 to 1 µM.

Take `C[C@@H]1CN(c2cccc(-c3csc(NC(=O)CNC(=O)c4cccc([C@]5(C)C[C@@H](O)C5)c4)n3)c2)C[C@H](C)O1` [Compound 392, N-(2-((4-(3-((cis)-2,6-dimethylmorpholino)phenyl)thiazol-2-yl)amino)-2-oxoethyl)-3-((1r,3r)-3-hydroxy-1-methylcyclobutyl)benzamide]: on BRG-1, the IC50 was > 5 µM and the Emax was > 90%. Also, on BRM, the “BRM Max % Inhibition” value is >90% and the half-maximal inhibitory concentration (IC50) is 0.1 to 1 µM.

On to `CC(=O)N(C)c1cc(-c2cccc(-c3csc(NC(=O)CNC(=O)c4cccc(C(C)(C)CN)c4)n3)c2)ccn1` [Compound 56, 3-(1-amino-2-methylpropan-2-yl)-N-(2-((4-(3-(2-(N-methylacetamido)pyridin-4-yl)phenyl)thiazol-2-yl)amino)-2-oxoethyl)benzamide], for which, at BRG-1, the IC50 fell in the range of 1 to 5 µM and the Emax is > 70%. In addition, at BRM, the “BRM Max % Inhibition” value was >90% and the IC50 was 0.1 to 1 µM.

On to `CC(C)N1CCOc2ccc(C(=O)NCC(=O)Nc3nc(-c4cccc(N5C[C@@H](C)O[C@@H](C)C5)n4)cs3)cc21` [Compound 395, N-(2-((4-(6-((cis)-2,6-dimethylmorpholino)pyridin-2-yl)thiazol-2-yl)amino)-2-oxoethyl)-4-isopropyl-3,4-dihydro-2H-benzo[b][1,4]oxazine-6-carboxamide], for which, at BRG-1, the IC50 was > 5 µM and the Emax was > 80%. Besides, on BRM, the “BRM Max % Inhibition” value is on record as >80% and the half-maximal inhibitory concentration (IC50) was 0.1 to 1 µM.

Consider `C[C@@H]1CN(c2cccc(-c3csc(NC(=O)CNC(=O)c4ccc5c(c4)[C@](C)(CO)CC5)n3)c2)C[C@H](C)O1` [Compound 218, (R)-N-(2-((4-(3-((cis)-2,6-dimethylmorpholino)phenyl)thiazol-2-yl)amino)-2-oxoethyl)-3-(hydroxymethyl)-3-methyl-2,3-dihydro-1H-indene-5-carboxamide], for which, at BRG-1, the 50% inhibitory concentration (IC50) was 1 to 5 µM and the Emax is > 80%. For the same compound, at BRM, the “BRM Max % Inhibition” value is recorded as >90% and the 50% inhibitory concentration (IC50) was 0.1 to 1 µM.

On to `C[C@@H]1CN(c2cccc(-c3csc(NC(=O)CNC(=O)c4cccc([C@H]5COC[C@@H]5O)c4)n3)c2)C[C@H](C)O1` [Compound 156, N-(2-((4-(3-((cis)-2,6-dimethylmorpholino)phenyl)thiazol-2-yl)amino)-2-oxoethyl)-3-((3S,4R)-4-hydroxytetrahydrofuran-3-yl)benzamide], for which, at BRG-1, the IC50 is > 5 µM and the Emax is > 30%. Besides, at BRM, the “BRM Max % Inhibition” value is listed as >80% and the IC50 is 0.1 to 1 µM.

As for `Cc1cc(-c2cccc(-c3csc(NC(=O)CNC(=O)c4ccc5c(c4)[C@](C)(CO)CCC5)n3)c2)cc(C)n1` [Compound 232, (R)-N-(2-((4-(3-(2,6-dimethylpyridin-4-yl)phenyl)thiazol-2-yl)amino)-2-oxoethyl)-8-(hydroxymethyl)-8-methyl-5,6,7,8-tetrahydronaphthalene-2-carboxamide], at BRG-1, the IC50 lay within 0.1 to 1 µM and the Emax is > 80%. For the same compound, on BRM, the “BRM Max % Inhibition” value was >95% and the IC50 was < 0.1 µM.

Consider `Cc1nccc(-c2cccc(-c3csc(NC(=O)CNC(=O)c4cccc(S(=O)(=O)C(C)C)c4)n3)n2)n1` [Compound 121], for which, on BRG-1, the half-maximal inhibitory concentration (IC50) lay within 1 to 5 µM and the Emax is > 80%. Further, at BRM, the “BRM Max % Inhibition” value is listed as >95% and the IC50 fell in the range of 0.1 to 1 µM.

As to `CC(C)S(=O)(=O)c1cccc(C(=O)NCC(=O)Nc2nc(-c3cccc(-c4cc(CO)cc(C(F)(F)F)c4)c3)cs2)c1` [Compound 27, N-(2-((4-(3′-(hydroxymethyl)-5′-(trifluoromethyl)-[1,1′-biphenyl]-3-yl)thiazol-2-yl)amino)-2-oxoethyl)-3-(isopropylsulfonyl)benzamide], the IC50 on BRG-1 is 0.1 to 1 µM; at BRM it was < 0.1 µM. Also, on BRM, the “BRM Max % Inhibition” value is >95%.

As for `Cc1cncc(-c2cccc(-c3csc(NC(=O)CNC(=O)c4ccc5c(c4)C(C)(CO)CC5)n3)c2)n1` (stereo in doubt) [Compound 432, (S)-3-(hydroxymethyl)-3-methyl-N-(2-((4-(3-(6-methylpyrazin-2-yl)phenyl)thiazol-2-yl)amino)-2-oxoethyl)-2,3-dihydro-1H-indene-5-carboxamide], on BRG-1 (30 nM BRG-1, 400 μM ATP), the IC50 was in the range of 0.1 to 1 µM and the Emax was > 95%. Moreover, on BRM (30 nM BRM, 400 μM ATP), the “BRM Max % Inhibition” value was >95% and the IC50 was < 0.1 µM.

In the case of `Cc1cc(-c2cccc(-c3csc(NC(=O)CNC(=O)c4cccc(S(=O)(=O)C(C)C)c4)n3)c2)cc(C)n1` [Compound 18, N-(2-((4-(3-(2,6-dimethylpyridin-4-yl)phenyl)thiazol-2-yl)amino)-2-oxoethyl)-3-(isopropylsulfonyl)benzamide], on BRG-1, the IC50 is < 0.1 µM and the Emax was > 95%. In addition, on BRM, the “BRM Max % Inhibition” value is >95% and the IC50 is < 0.1 µM.

In the case of `Cc1cc(C(=O)NCC(=O)Nc2nc(-c3cccc(-c4ccncc4)c3)cs2)cc(C(C)(C)CN)c1` [Compound 63, 3-(1-amino-2-methylpropan-2-yl)-5-methyl-N-(2-oxo-2-((4-(3-(pyridin-4-yl)phenyl)thiazol-2-yl)amino)ethyl)benzamide], on BRG-1, the IC50 is > 5 µM and the Emax is > 60%. Further, on BRM, the “BRM Max % Inhibition” value is >80% and the IC50 lay in the range of 1 to 5 µM.

With `C[C@@]1(C#N)COCc2ccc(C(=O)NCC(=O)Nc3nc(-c4cccc(F)c4)cs3)cc21` [Compound 322, (R)-4-cyano-N-(2-((4-(3-fluorophenyl)thiazol-2-yl)amino)-2-oxoethyl)-4-methylisochromane-6-carboxamide], at BRG-1, the IC50 was in the range of 0.1 to 1 µM and the Emax was > 95%. In addition, at BRM, the “BRM Max % Inhibition” value is listed as >95% and the concentration for half-maximal inhibition (IC50) is < 0.1 µM.

Consider `C[C@@H]1CN(c2cccc(-c3csc(NC(=O)CNC(=O)c4ccc5c(c4)[C@@H]([C@@H](C)O)CC5)n3)n2)C[C@H](C)O1` [Compound 142, (3S)-N-[2-[[4-[6-[(cis)-2,6-dimethylmorpholin-4-yl]-2-pyridyl]thiazol-2-yl]amino]-2-oxo-ethyl]-3-[(1R)-1-hydroxyethyl]indane-5-carboxamide], for which, on BRG-1, the half-maximal inhibitory concentration (IC50) was 0.1 to 1 µM and the Emax is > 80%. For the same compound, on BRM, the “BRM Max % Inhibition” value is reported as >95% and the IC50 was < 0.1 µM.

For the compound `Cc1cc(-c2cccc(-c3csc(NC(=O)CNC(=O)c4ccc(C)c(S(=O)(=O)C(C)C)c4)n3)n2)ncn1` [Compound 110, 3-isopropylsulfonyl-4-methyl-N-[2-[[4-[6-(6-methylpyrimidin-4-yl)-2-pyridyl]thiazol-2-yl]amino]-2-oxo-ethyl]benzamide], on BRG-1, the IC50 lay within 0.1 to 1 µM and the Emax is > 80%. On BRM, the “BRM Max % Inhibition” value is given as >95% and the IC50 is < 0.1 µM.

For `COc1cccc(-c2csc(NC(=O)CNC(=O)c3ccc4c(c3)C(C)(O)COC4)n2)c1` (stereo not shown) [Compound 313, 4-hydroxy-N-(2-((4-(3-methoxyphenyl)thiazol-2-yl)amino)-2-oxoethyl)-4-methylisochromane-6-carboxamide], at BRG-1, the IC50 fell in the range of 1 to 5 µM and the Emax is > 90%. Also, at BRM, the “BRM Max % Inhibition” value is recorded as >90% and the IC50 fell in the range of 0.1 to 1 µM.

As for `CC1(C#N)CCOc2ccc(C(=O)NCC(=O)Nc3nc(-c4cccc([C@H]5CC5(F)F)n4)cs3)cc21` (stereo in doubt) [Compound 378, (S)-4-cyano-N-(2-((4-(6-((R)-2,2-difluorocyclopropyl)pyridin-2-yl)thiazol-2-yl)amino)-2-oxoethyl)-4-methylchromane-6-carboxamide], at BRG-1, the half-maximal inhibitory concentration (IC50) was 1 to 5 µM and the Emax was > 95%. Moreover, on BRM, the “BRM Max % Inhibition” value is >95% and the half-inhibitory concentration (IC50) was in the range of 0.1 to 1 µM.
